# Measurements: patent US11242344B2, “(4-hydroxypyrrolidin-2-yl)-heterocyclic compounds and methods of use thereof” (Genentech, Inc., priority 2017, dated 2022)
# Assays:
# MYC expression = experiment: Inhibition of MYC expression in MV-4-11 cells; format: cell-based; conditions: for IC50: QuantiGene 2.0, geometric mean; for Maximum Inhibition (%): maximum inhibition of MYC expression
# Experimental: Pharmacologic inhibition of MYC is achievable through targeting BET bromodomains through small molecule binder or degrader mechanisms. Such inhibitors may have clinical utility given the widespread pathogenetic role of MYC in cancer. See, e.g., Mertz J, et al., “Targeting MYC dependence in cancer by inhibiting BET bromodomains,” (2011) Proc. Natl. Acad. Sci. USA, Vol. 108 (40), pp. 16669-16674.
# To determine the inhibition of MYC expression, MV-4-11 cells (ATCC) were plated at 10,000 cells per well in 96-well plates in RPMI1640 media supplemented with 10% fetal bovine serum and 2 mM L-glutamine. Test compounds diluted in DMSO were transferred to the cell plates, keeping final DMSO concentration consistent at 0.1%, and incubated for 4 h at 37° C. Lysis and analysis for MYC expression were carried out using QuantiGene 2.0 reagents (Affymetrix/eBioscience, probe set cat #SA-50182) and following the vendor's instructions. Luminescence was read using an EnVision plate reader (PerkinElmer) and IC50s generated in Genedata Screener using a 4-parameter non-linear regression fit.
# Effective degraders will surpass this and inhibit >95% of MYC, thus following the maximum inhibition within this assay provides valuable SAR. Where more than one measurement was performed for the same assay, the value reported is the geometric mean of all values.
# VHL Elongin B/C complex = VHL Elongin B/C complex (Homo sapiens (Human), UniProt P40337); experiment: Fluorescence Polarization (FP) VHL Binding Assay; conditions: VHL binding, FP assay; geometric mean where more than one measurement
# Chain of VHL Elongin B/C complex (P40337 whole entry, looked up): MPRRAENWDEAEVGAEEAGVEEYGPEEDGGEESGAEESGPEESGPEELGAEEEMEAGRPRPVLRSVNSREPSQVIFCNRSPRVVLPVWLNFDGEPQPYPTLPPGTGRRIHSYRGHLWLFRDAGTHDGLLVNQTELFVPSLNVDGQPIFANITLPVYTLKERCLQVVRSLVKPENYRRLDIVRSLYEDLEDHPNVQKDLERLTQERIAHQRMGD
# Chain of VHL Elongin B/C complex (Q15370 whole entry partner, looked up): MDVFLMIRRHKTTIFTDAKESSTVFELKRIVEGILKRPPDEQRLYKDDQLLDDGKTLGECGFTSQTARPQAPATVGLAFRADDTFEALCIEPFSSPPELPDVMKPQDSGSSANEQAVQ
# Chain of VHL Elongin B/C complex (Q15369 whole entry partner, looked up): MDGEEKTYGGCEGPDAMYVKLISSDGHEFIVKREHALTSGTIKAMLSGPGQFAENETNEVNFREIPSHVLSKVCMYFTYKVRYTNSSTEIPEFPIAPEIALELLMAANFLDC
# In short: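 Readout is polarization of a TAMRA-coupled VHL ligand (1.67 nM final) displaced from the VHL(E55-D213)/Elongin B/C complex (2.64 nM final) after 1 h incubation at room temperature in pH 8.0 Tris buffer with 1% DMSO. Data normalized to no-VHL and compound-free controls, with compound fluorescence subtracted, and fitted by four-parameter curve for IC50.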
# BRD4 = BRD4 (Homo sapiens (Human), UniProt O60885); experiment: BRD4 degradation assay in EOL-1 cells, high content fluorescence imaging; format: cell-based; conditions: 4 hours; for DC50: BRD4 immunofluorescence, read-out: EOL-1 EC50; for EOL-1 Sinf (%): maximum degradation, percent change in protein level (-100% = complete loss)
# Experimental: PC3 (Steap-1) prostate cancer cells: PC3 (Steap-1) prostate cancer cells (PC3 cells overexpressing the surface protein Steap-1) were seeded on day 1 at a density of 200,000 cells/mL in 45 μl/well in cell plates in a 384 well Greiner/Perkin Elmer Cell Carrier TC Treated plate (part #6007430) in Assay Medium (RPMI, 10% FBS, 2 mM Glutamax). Cells were incubated overnight at 37° C. degrees. On day 2, compounds were serially diluted 3-fold in DMSO spanning the concentrations 10 mM to 8.6 nM, in 384 well clear polypropylene plates (Greiner Cat #781201). DMSO and 10 mM of a control PROTAC (dBET1, as described in WO 2017/024317, p. 235, structure below) (control compound) were added to designated wells. Compounds and controls were diluted 50-fold (2 μl of DMSO stock into 98 μl) into Assay Medium. 5 μl of the diluted compounds was transferred to the cell plates. The final top concentration of the test compounds in the cell plates was 20 μM. Cell plates were incubated at 37° C., for 4 hours. Fixation and permeabilization were carried out using a Biotek EL406 plate washer and dispenser as follows. Cells were fixed by addition of 15 μL of 16% paraformaldehyde (Electron Microscopy Sciences #15710-S) directly to the 50 μL cell culture medium in each well using the peristaltic pump 5 μL cassette on a Biotek EL406 (final concentration of formaldehyde was 3.7% w/v). Samples were incubated 30 minutes. Well contents were aspirated and 50 μL/well of Phosphate Buffered Saline (PBS) containing 0.5% w/v bovine serum albumen, 0.5% v/v Triton X-100 (Antibody Dilution Buffer) was added to each well. Samples were incubated for 30 minutes. Well contents were aspirated and washed 3 times with 100 μL/well of PBS.
# EOL-1 cells: The BRD4 degradation assay was performed on EOL-1 cells using the same procedure as described above for PC3 (Steap-1) prostate cancer cells, except EOL-1 cells were seeded at 1,000,000 cells/mL. Following aspiration and washing of the well contents with 100 μL/well of PBS, 40 μL PBS plus 10% normal goat serum was added per well for 20 minutes at room temperature.
# For both the PC3 and EOL-1 cell assays, immunofluorescence staining of BRD4 was carried out using a Biotek EL406 plate washer and dispenser as follows. The well supernatant was aspirated from the wells and 25 μL/well of rabbit mAb Anti-BRD4 [EPR5150(2)] abeam 128874 diluted 1:500 in Antibody Dilution Buffer is dispensed. Samples were incubated for 2 hours at room temperature. Samples were washed 4 times with 100 μL/well of PBS. 25 μL/well of secondary antibody solution (Goat Anti-Rabbit IgG, DyLight 488 Conjugated Highly Cross-adsorbed #35553 1:1000) diluted 1:1000 and Hoechst 33342 1 μg/ml diluted in Antibody Dilution Buffer) were dispensed into each well. 16 wells of the plate, which were designated as ‘no primary antibody” wells, received only Antibody Dilution Buffer (without anti-BRD4 antibody). Samples were incubated for 2 hours at room temperature. Samples were washed 3 times with 100 μL/well of PBS using a Biotek EL406. Quantitative fluorescence imaging of BRD4 was carried out using a Phenix (Perkin Elmer). Fluorescence images of the samples (Channel 1: Hoechst33342 (DNA stain); Channel 2: 488 nm (BRD4 stain)) were acquired. Channel 1 (DNA stain) was used to define the “Region of Interest” (ROI) nuclear region. Measurements of BRD4 average immunofluorescence intensity within the ROI (nuclear region), were made on a per cell basis and averaged over all the measured cells. Data analysis was carried out using Genedata Screener Software, with DMSO and “no primary antibody” samples being used to define the 0% and 100% changes in BRD4. The “Robust Fit” method was used to define the inflexion point of curve (EC50) and the plateau of the maximal effect (Sinf). The Sinf value reports degradation as percent change in protein level, so complete loss of the protein target is −100%. […]
# [1] = target: VHL co-expressed with Elongins B and C (Homo sapiens (Human), UniProt P40337); experiment: Surface Plasmon Resonance Assay; format: binding; conditions: SPR measured VHL affinity; geometric mean where more than one measurement
# Chain of VHL co-expressed with Elongins B and C (P40337 whole entry, looked up): as the sequence (P40337 whole entry, looked up) above
# Chain of VHL co-expressed with Elongins B and C (Q15370 whole entry partner, looked up): as the sequence (Q15370 whole entry partner, looked up) above
# Chain of VHL co-expressed with Elongins B and C (Q15369 whole entry partner, looked up): as the sequence (Q15369 whole entry partner, looked up) above
# In short: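 Binding kinetics by SPR at 20 °C: compound concentration series run from low to high at 80 μL/min over VHL–Elongin B/C complex, immobilized via avidin tag on SA chip. Buffer was HEPES pH 7.2 with 150 mM NaCl, TCEP, Tween 20, PEG3350 and 2% DMSO; association/dissociation times adjusted per compound.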
# [2] = target: NanoLuc VHL fusion protein (Homo sapiens (Human), UniProt P40337); experiment: VHL HEK-293 BRET Assay (NanoBRET Target Engagement); format: cell-based; conditions: geometric mean where more than one measurement
# Chain of NanoLuc VHL fusion protein (P40337 whole entry, looked up, the tested form may be a part): as the sequence (P40337 whole entry, looked up) above
# Chain of NanoLuc VHL fusion protein (Q15370 whole entry partner, looked up, the tested form may be a part): as the sequence (Q15370 whole entry partner, looked up) above
# Chain of NanoLuc VHL fusion protein (Q15369 whole entry partner, looked up, the tested form may be a part): as the sequence (Q15369 whole entry partner, looked up) above
# In short: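 HEK293 cells stably expressing NanoLuc-VHL, 2 h with compound titration and 1 uM final tracer, then Nano-Glo substrate plus extracellular NanoLuc inhibitor. BRET ratio 610/460 nm, background-corrected with no-tracer wells, normalised to DMSO and 10 uM unlabeled VHL antagonist controls; IC50 by four-parameter fit.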
SMILES,IC50 (MYC expression; 4 h) [nM],Maximum Inhibition (%) (MYC expression; 4 h),DC50 (BRD4) [nM],further results
"Cc1ncsc1-c1ccc(C2(C)NC(C3C[C@@H](O)CN3C(=O)C(c3cc(OCCN4CC[C@H](NC(=O)c5cc6c(cc5CS(C)(=O)=O)-c5cn(C)c(=O)c7[nH]cc(c57)CN6c5ncc(F)cc5F)C4)no3)C(C)C)=NC2=O)cc1 (single isomer, unassigned) [Example 1002.4]",80.4,69.9,–,–
"Cc1ncsc1-c1ccc([C@]2(C)NC(C3C[C@@H](O)CN3C(=O)C(c3cc(OCCCCCNC(=O)c4cc5c(cc4CS(C)(=O)=O)-c4cn(C)c(=O)c6[nH]cc(c46)CN5c4ncc(F)cc4F)no3)C(C)C)=NC2=O)cc1 (single isomer, unassigned) [Example 1001.4]",26.1,75.7,–,IC50 (VHL Elongin B/C complex): > 100 µM
"Cc1ncsc1-c1ccc(C2(C)NC(C3C[C@@H](O)CN3C(=O)C(c3cc(OCCN4CC[C@H](NC(=O)c5cc6c(cc5CS(C)(=O)=O)-c5cn(C)c(=O)c7[nH]cc(c57)CN6c5ncc(F)cc5F)C4)no3)C(C)C)=NC2=O)cc1 (single isomer, unassigned) [Example 1002.3]",–,69.8,–,"IC50 (MYC expression; Homo sapiens, MV4-11, 4 h): 123 nM"
"Cc1ncsc1-c1ccc([C@]2(C)NC([C@@H]3C[C@@H](O)CN3C(=O)C(NC(=O)CCCCCCCCCCNC(=O)c3cc4c(cc3CS(C)(=O)=O)-c3cn(C)c(=O)c5[nH]cc(c35)CN4c3ncc(F)cc3F)C(C)(C)C)=NO2)cc1 (single isomer, unassigned) [Example 1006.1]",–,–,1.02,EOL-1 Sinf (%) (BRD4): −92.6%
"Cc1ncsc1-c1ccc(C2(C)NC(C3C[C@@H](O)CN3C(=O)C(c3cc(OCCN4CC[C@H](NC(=O)c5cc6c(cc5CS(C)(=O)=O)-c5cn(C)c(=O)c7[nH]cc(c57)CN6c5ncc(F)cc5F)C4)no3)C(C)C)=NC2=O)cc1 (single isomer, unassigned) [Example 1002.1]",51.5,76.4,> 20000,–
"Cc1ncsc1-c1ccc(C2(C)NC(C3C[C@@H](O)CN3C(=O)C(c3cc(OCCN4CC[C@H](NC(=O)c5cc6c(cc5CS(C)(=O)=O)-c5cn(C)c(=O)c7[nH]cc(c57)CN6c5ncc(F)cc5F)C4)no3)C(C)C)=NC2=O)cc1 (single isomer, unassigned) [Example 1002.2]",25.7,90.3,0.31,EOL-1 Sinf (%) (BRD4): −65.0%
"Cc1ncsc1-c1ccc([C@]2(C)NC(C3C[C@@H](O)CN3C(=O)[C@@H]3CCCN3S(C)(=O)=O)=NC2=O)cc1 (single isomer, unassigned) [Example 112.1]",–,–,–,IC50 (VHL Elongin B/C complex): 23.3 µM; Kd [1]: 12.1 µM; IC50 [2]: 66.4 µM
